The values below come from US8592417B2, “2-substituted-6-heterocyclic pyrimidone derivatives as tau protein kinase 1 inhibitors” (Mitsubishi Tanabe Pharma Corporation, priority 2006, dated 2013).

Structures are written as SMILES.

For this experiment, the target named is T1, bovine cerebral TPK1 (Bos taurus, UniProt A0A3Q1MT31).
T1 construct: bovine cerebral TPK1; from tissue; host or cells: bovine brain (cerebrum)
Kind of experiment: Inhibitory activity against P-GS1 phosphorylation by bovine cerebral TPK1. The experiment is classed as biochemical. The following applies: 41.7 μM [γ-32P] ATP, 25° C. for 2 hours. The procedure: Inhibitory Activity of the Medicament of the Present Invention Against P-GS1 Phosphorylation by Bovine Cerebral TPK1
A mixture containing 100 mM MES-sodium hydroxide (pH 6.5), 1 mM magnesium acetate, 0.5 mM EGTA, 5 mM β-mercaptoethanol, 0.02% Tween 20, 10% glycerol, 12 μg/ml P-GS1, 41.7 μM [γ^−32P] ATP (68 kBq/ml), bovine cerebral TPK1 and a compound shown in Table (a final mixture contained 1.7% DMSO deriving from a solution of a test compound prepared in the presence of 10% DMSO) was used as a reaction system. The phosphorylation was started by adding ATP, and the reaction was conducted at 25° C. for 2 hours, and then stopped by adding 21% perchloric acid on ice cooling. The reaction mixture was centrifuged at 12,000 rpm for 5 minutes and adsorbed on P81 paper (Whatmann), and then the paper was washed four times with 75 mM phosphoric acid, three times with water and once with acetone. The paper was dried, and the residual radioactivity was measured using a liquid scintillation counter.

T1 sequence (A0A3Q1MT31 1-419): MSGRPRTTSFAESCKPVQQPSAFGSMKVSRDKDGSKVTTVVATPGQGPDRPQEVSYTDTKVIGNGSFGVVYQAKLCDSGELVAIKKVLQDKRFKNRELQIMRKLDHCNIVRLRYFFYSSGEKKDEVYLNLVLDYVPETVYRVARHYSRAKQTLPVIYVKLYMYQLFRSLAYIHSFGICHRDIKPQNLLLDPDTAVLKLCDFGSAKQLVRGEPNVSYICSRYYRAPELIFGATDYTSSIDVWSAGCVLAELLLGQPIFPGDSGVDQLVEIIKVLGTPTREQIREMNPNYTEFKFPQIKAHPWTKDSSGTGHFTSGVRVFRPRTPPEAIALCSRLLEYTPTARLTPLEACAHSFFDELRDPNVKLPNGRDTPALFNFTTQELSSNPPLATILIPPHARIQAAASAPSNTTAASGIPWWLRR

For the molecule `O=c1cc(-c2ccncn2)nc(N2CCO[C@@H](c3ccc(F)cc3)C2)[nH]1` [Compound 2, 2-[(2S)-2-(4-Fluorophenyl)morpholin-4-yl]-1H-[4,4′]bipyrimidinyl-6-one], the IC50 is 86.3 nM.
Under `O=c1cc(-c2ccncc2F)nc(N2CCO[C@@H](c3ccc(F)cc3)C2)[nH]1` [Compound 3, 2-[(2S)-2-(4-Fluoro-phenyl)-morpholin-4-yl]-6-(3-fluoro-pyridin-4-yl)-3H-pyrimidin-4-one] stands 59.8 nM.

As a reminder, the IC50 is the concentration that inhibits the measured activity by half. Lower therefore signals greater potency.
